Among the test systems are NCI-H522; HOP-92; 786-0; TK-10; OVCAR-3; SK-MEL-28; SNB-19; COLO 205; RPMI-8226; KM-20L2; HT-29; CAKI-1; NCI-H23; Malme-3M; HCT-116; Hs-578T; BT-549; MDA-MB-435; DU-145; T47D.
What all share (assay): inhibition of tumour cell growth, NCI panel, 48 h

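Following 48 hours of exposure in 96-well plates, responses at five concentrations were used to interpolate endpoints linearly. Abbreviation: GI50, concentration required for 50% inhibition of growth.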 Calls of active or inactive are those of the source. Rule as the data show it: active = GI50 up to about 1.1 µM and inactive = higher. Non-standard residues stand in square brackets, D forms with d. Residues, ends and D or L forms follow the SMILES beside them. *: point of attachment. NMeF = CN[CH](Cc1ccccc1)C(=O)O; NMeV = CN[CH](C(=O)O)C(C)C; Boc = CC(C)(C)OC(=O)*

For `CC1C2C=C(O)C(=O)C(C2=O)C1c1ccccc1` (centres undefined), the GI50 with NCI-H522, in the experiment on HOP-92, in the experiment on 786-0, in the experiment on TK-10, in the experiment on OVCAR-3 and in the experiment on SK-MEL-28 was > 100 µM (inactive) each time. Further, the GI50 in the experiment with SNB-19 was > 100 µM (inactive); in the experiment with COLO 205, > 100 µM (inactive); with RPMI-8226 it was > 100 µM (inactive); in the experiment with KM-20L2, 38.6 µM (inactive); in the experiment on HT-29 it was > 100 µM (inactive); with CAKI-1, > 100 µM (inactive). The GI50 with NCI-H23 and in the experiment with Malme-3M was > 100 µM (inactive) each time.
On to `COc1ccc(OC)c(/C(C)=N/NC(N)=S)c1`, for which the GI50 in the experiment on HOP-92, in the experiment with 786-0, with TK-10, with OVCAR-3, in the experiment on SK-MEL-28 and in the experiment on COLO 205 was > 100 µM (inactive) each time. For the same molecule, the GI50 with RPMI-8226, in the experiment on KM-20L2, with HT-29, in the experiment on HCT-116, in the experiment on CAKI-1 and with NCI-H23 was > 100 µM (inactive) each time. Besides, in the experiment on Malme-3M, the GI50 was > 100 µM (inactive).
Consider `CC1=NC2(C(=O)O)C3(C(=O)O)N=C(C)OC3(C(F)(F)F)C2(C(F)(F)F)O1` (centres undefined), for which the GI50 in the experiment on NCI-H522, with HOP-92, with 786-0, in the experiment with TK-10, in the experiment with OVCAR-3 and with SK-MEL-28 was > 100 µM (inactive) each time. The GI50 in the experiment with SNB-19, in the experiment with COLO 205, in the experiment on KM-20L2, with HT-29, with HCT-116 and in the experiment on CAKI-1 was > 100 µM (inactive) in each case. The GI50 in the experiment with NCI-H23 and with Malme-3M was > 100 µM (inactive) each time.
Take `O=C(CC(=O)N1N=C(n2ccc3ccccc32)CC1c1ccccc1)Nc1ccccc1Cl` (centres undefined): the GI50 with NCI-H522 was > 100 µM (inactive); in the experiment on HOP-92 it was 32.3 µM (inactive); with 786-0, > 100 µM (inactive); in the experiment with TK-10, > 100 µM (inactive); in the experiment on OVCAR-3 it was > 100 µM (inactive); with SK-MEL-28, > 100 µM (inactive). Moreover, the GI50 with SNB-19, with COLO 205, in the experiment with RPMI-8226, in the experiment on KM-20L2, in the experiment with HT-29 and with HCT-116 was > 100 µM (inactive) each time. Moreover, the GI50 in the experiment on NCI-H23 and with Malme-3M was > 100 µM (inactive) throughout.
In the case of `CN(C)c1ccccc1CC(c1c[nH]c2ccccc12)c1c[nH]c2ccccc12`, the GI50 in the experiment on NCI-H522 was 12.9 µM (inactive); in the experiment with 786-0 it was 12.8 µM (inactive); with TK-10, 16.2 µM (inactive); in the experiment on OVCAR-3, 12.8 µM (inactive); in the experiment with SNB-19, 14.4 µM (inactive); with COLO 205, 2.82 µM (inactive). In addition, the GI50 is 10.7 µM (inactive) with KM-20L2; 5.38 µM (inactive) in the experiment on HT-29; 11.2 µM (inactive) in the experiment with HCT-116; 4.94 µM (inactive) in the experiment with CAKI-1; 6.85 µM (inactive) in the experiment on NCI-H23; 17.1 µM (inactive) in the experiment on Malme-3M.
As to `CC(=O)C1(O)CC2(c3ccccc3)C(=O)C1(c1ccccc1)C(c1ccccc1)=C2c1ccccc1` (centres undefined), the GI50 was 66.8 µM (inactive) with NCI-H522; 80.9 µM (inactive) in the experiment with HOP-92; > 100 µM (inactive) with 786-0; > 100 µM (inactive) in the experiment with TK-10; > 100 µM (inactive) in the experiment on OVCAR-3; > 100 µM (inactive) in the experiment on SNB-19. The GI50 in the experiment with COLO 205 was > 100 µM (inactive); in the experiment on RPMI-8226, 16.5 µM (inactive); in the experiment on KM-20L2, > 100 µM (inactive); with HT-29, > 100 µM (inactive); in the experiment on HCT-116, 30.9 µM (inactive); in the experiment on CAKI-1, > 100 µM (inactive). The GI50 with NCI-H23 is 36.6 µM (inactive); with Malme-3M, > 100 µM (inactive).
As to `COc1cc(C(=O)C(CO)Oc2ccccc2OC)ccc1O` (centres undefined), the GI50 is > 100 µM (inactive) with NCI-H522; 88.7 µM (inactive) in the experiment with HOP-92; > 100 µM (inactive) with 786-0; > 100 µM (inactive) with TK-10; > 100 µM (inactive) with OVCAR-3; > 100 µM (inactive) in the experiment on SK-MEL-28. Besides, the GI50 in the experiment with SNB-19, in the experiment with COLO 205, in the experiment on KM-20L2, in the experiment on HT-29, in the experiment on HCT-116 and in the experiment on CAKI-1 was > 100 µM (inactive) throughout. Also, the GI50 in the experiment on NCI-H23 and in the experiment on Malme-3M was > 100 µM (inactive) in each case.
With `CC(C)C(NC(=O)OC(C)(C)C)C(=O)N(C)C(Cc1ccccc1)C(=O)N(C)C(C(=O)O)C(C)C` (stereo not drawn) (Boc-Val-[NMeF]-[NMeV]-OH; configuration not given here), the GI50 was 71.1 µM (inactive) in the experiment on NCI-H522; > 100 µM (inactive) in the experiment on 786-0; > 100 µM (inactive) in the experiment with TK-10; > 100 µM (inactive) with OVCAR-3; > 100 µM (inactive) in the experiment with SK-MEL-28; > 100 µM (inactive) in the experiment on SNB-19. In addition, the GI50 with COLO 205, with RPMI-8226, in the experiment on KM-20L2, in the experiment with HT-29, in the experiment on HCT-116 and in the experiment on NCI-H23 was > 100 µM (inactive) throughout. For the same molecule, in the experiment on Malme-3M, the GI50 is > 100 µM (inactive).
As to `CN1CCCCC(C(O)(c2ccccc2)c2ccccc2)C1=O` (centres undefined), the GI50 with NCI-H522, in the experiment on HOP-92, in the experiment on 786-0, in the experiment with TK-10, in the experiment on OVCAR-3 and in the experiment on SK-MEL-28 was > 100 µM (inactive) throughout. The GI50 in the experiment with SNB-19 was > 100 µM (inactive); with COLO 205, 56.2 µM (inactive); in the experiment on RPMI-8226, 24.1 µM (inactive); with KM-20L2, > 100 µM (inactive); in the experiment with HT-29 it was > 100 µM (inactive); in the experiment with HCT-116, 24.8 µM (inactive). Besides, the GI50 with NCI-H23 and in the experiment with Malme-3M was > 100 µM (inactive) in each case.
Take `N#CCC(=O)N1CCCOCCC1`: the GI50 in the experiment on 786-0 is > 100 µM (inactive); in the experiment with TK-10, > 100 µM (inactive); in the experiment with SK-MEL-28 it was > 100 µM (inactive); in the experiment with SNB-19, > 100 µM (inactive); in the experiment with COLO 205, 21.8 µM (inactive); with KM-20L2 it was > 100 µM (inactive). The GI50 with HT-29 was 34.1 µM (inactive); in the experiment with HCT-116, > 100 µM (inactive); in the experiment with CAKI-1, > 100 µM (inactive); in the experiment with NCI-H23, > 100 µM (inactive); with Malme-3M, > 100 µM (inactive).
For `Cc1ccc(-c2cc(N)n(-c3nc4c([nH]3)c(=O)n(C)c(=O)n4C)n2)cc1`, the GI50 in the experiment on NCI-H522 is 29 µM (inactive); in the experiment with Hs-578T it was 23 µM (inactive); in the experiment on BT-549, 6.95 µM (inactive); with HOP-92, 12.8 µM (inactive); in the experiment with 786-0, 2.08 µM (inactive); in the experiment on TK-10 it was 9.84 µM (inactive). For the same molecule, the GI50 with MDA-MB-435 was 7.73 µM (inactive); with OVCAR-3, 4.55 µM (inactive); in the experiment on SK-MEL-28 it was 6.14 µM (inactive); in the experiment on SNB-19, 8.55 µM (inactive); in the experiment with DU-145, 6.35 µM (inactive); in the experiment with COLO 205, 3.62 µM (inactive). For the same molecule, the GI50 in the experiment on RPMI-8226 is 6.81 µM (inactive); in the experiment on HT-29, 4.53 µM (inactive); in the experiment on HCT-116, 2.69 µM (inactive); in the experiment on CAKI-1 it was 0.778 µM (active); with NCI-H23 it was 8.95 µM (inactive); with T47D, 4.76 µM (inactive). The GI50 in the experiment with Malme-3M was 3.86 µM (inactive).
Turning to `Cc1cnc2[nH]c(-c3ccccc3)cc(=O)c2c1`, the GI50 with NCI-H522 was < 0.0118 µM (active); in the experiment with Hs-578T it was 0.0171 µM (active); in the experiment with BT-549, 0.0306 µM (active); in the experiment with HOP-92, 0.065 µM (active); in the experiment with 786-0, 0.043 µM (active); in the experiment with TK-10, 0.151 µM (active). The GI50 is < 0.01 µM (active) with MDA-MB-435; 0.0123 µM (active) with OVCAR-3; 0.0363 µM (active) with SK-MEL-28; 0.0904 µM (active) in the experiment on SNB-19; 0.0395 µM (active) in the experiment on DU-145; 0.0193 µM (active) in the experiment with COLO 205. In addition, the GI50 was 0.0219 µM (active) in the experiment on RPMI-8226; 0.0101 µM (active) in the experiment on HT-29; < 0.0155 µM (active) in the experiment on HCT-116; < 0.0186 µM (active) in the experiment with CAKI-1; 0.0741 µM (active) in the experiment on NCI-H23; > 100 µM (inactive) in the experiment with T47D. In addition, the GI50 in the experiment with Malme-3M was 0.017 µM (active).
Take `O=S1(=O)OCCOS(=O)(=O)C1(Br)Cc1ccccc1`: the GI50 in the experiment on NCI-H522, in the experiment with HOP-92, in the experiment on 786-0, in the experiment on TK-10, in the experiment with OVCAR-3 and in the experiment on SK-MEL-28 was > 100 µM (inactive) each time. Further, the GI50 in the experiment on SNB-19, in the experiment on COLO 205, in the experiment with RPMI-8226, in the experiment on KM-20L2, in the experiment on HT-29 and in the experiment on HCT-116 was > 100 µM (inactive) each time. In addition, the GI50 in the experiment with NCI-H23 and in the experiment with Malme-3M was > 100 µM (inactive) each time.
Take `C#Cc1c(C)c(/C=C/C(C)=C/C(=O)OC)n(C)c1C`: the GI50 is 71.8 µM (inactive) in the experiment with NCI-H522; 25 µM (inactive) in the experiment on HOP-92; > 100 µM (inactive) in the experiment with 786-0; > 100 µM (inactive) in the experiment with TK-10; > 100 µM (inactive) in the experiment on OVCAR-3; > 100 µM (inactive) with SNB-19. The GI50 was > 100 µM (inactive) in the experiment on COLO 205; 40.3 µM (inactive) in the experiment on RPMI-8226; 87.7 µM (inactive) in the experiment with KM-20L2; 58.1 µM (inactive) in the experiment on HT-29; 65.8 µM (inactive) in the experiment on HCT-116; > 100 µM (inactive) with CAKI-1. For the same molecule, the GI50 in the experiment on NCI-H23 and in the experiment on Malme-3M was > 100 µM (inactive) each time.

(Values after ChEMBL document CHEMBL1201862, “PubChem BioAssay data set” (2004).)
